# Results reported in patent publication US12364709B2, “Bioavailable poly amines” (AMINEX THERAPEUTICS, INC., priority 2016, dated 2025).
# Test: 28-day repeat-dose toxicity study, toxicokinetics of AMXT 1501 dicaprate
# Type: in vivo, beagle dogs
# Method: AMXT 1501 PK parameters were calculated for all AMXT 1501 dicaprate-dosed animals for the first dose (Day 1) and last dose (Day 28).
# [1] = 8 mg/kg/day PO, DFMO 0, Day 1, M+F combined
# [2] = 8 mg/kg/day PO, DFMO 0, Day 28, M+F combined
# [3] = 8 mg/kg/day PO, DFMO 50 mg/kg/day, Day 28, M+F combined
# [4] = 8 mg/kg/day PO, DFMO 200 mg/kg/day, Day 1, M+F combined
# [5] = 16 mg/kg/day PO, DFMO 0, Day 1, M+F combined
# [6] = 16 mg/kg/day PO, DFMO 0, Day 28, M+F combined
# [7] = 16 mg/kg/day PO, DFMO 50 mg/kg/day, Day 28, M+F combined
# [8] = 16 mg/kg/day PO, DFMO 200 mg/kg/day, Day 1, M+F combined
# [9] = 32 mg/kg/day PO, DFMO 0, Day 1, M+F combined
# [10] = 32 mg/kg/day PO, DFMO 0, Day 28, M+F combined
structure (smiles),measurement,setting,value
CCCCCCCCCCCCCCCC(=O)NCCCC[C@@H](N)C(=O)NCCCNCCCCNCCCN [AMXT 1501 dicaprate],AUC0-24 hr Max.,[1],2810 ng·h/mL
same,AUC0-24 hr Min.,[1],374 ng·h/mL
same,Cmax Max.,[1],158 ng/mL
same,Cmax Min.,[1],30.8 ng/mL
same,Tmax Max.,[1],12.0 h
same,Tmax Min.,[1],2.00 h
same,AUC0-24 hr Max.,[2],5230 ng·h/mL
same,AUC0-24 hr Min.,[2],249 ng·h/mL
same,AUC0-t Max.,[2],9470 ng·h/mL
same,AUC0-t Min.,[2],308 ng·h/mL
same,AUC0-∞ Min.,[2],328 ng·h/mL
same,Cmax Max.,[2],360 ng/mL
same,Cmax Min.,[2],17.7 ng/mL
same,Tmax Min.,[2],0.00 h
same,t1/2 Max.,[2],28.8 h
same,t1/2 Min.,[2],12.6 h
same,AUC0-24 hr Max.,[3],4230 ng·h/mL
same,AUC0-24 hr Min.,[3],366 ng·h/mL
same,AUC0-t Max.,[3],5010 ng·h/mL
same,AUC0-t Min.,[3],1040 ng·h/mL
same,AUC0-∞ Max.,[3],5120 ng·h/mL
same,AUC0-∞ Min.,[3],1060 ng·h/mL
same,Cmax Max.,[3],275 ng/mL
same,Cmax Min.,[3],48.0 ng/mL
same,Tmax Max.,[3],12.0 h
same,Tmax Min.,[3],0.00 h
same,t1/2 Max.,[3],24.9 h
same,t1/2 Min.,[3],8.85 h
same,AUC0-24 hr Max.,[4],2670 ng·h/mL
same,AUC0-24 hr Min.,[4],323 ng·h/mL
same,Cmax Max.,[4],182 ng/mL
same,Cmax Min.,[4],35.2 ng/mL
same,Tmax Max.,[4],12.0 h
same,AUC0-24 hr Max.,[5],6350 ng·h/mL
same,AUC0-24 hr Min.,[5],104 ng·h/mL
same,Cmax Max.,[5],408 ng/mL
same,Cmax Min.,[5],10.4 ng/mL
same,Tmax Max.,[5],12.0 h
same,Tmax Min.,[5],2.00 h
same,AUC0-24 hr Max.,[6],7800 ng·h/mL
same,AUC0-24 hr Min.,[6],1320 ng·h/mL
same,AUC0-t Max.,[6],10800 ng·h/mL
same,AUC0-t Min.,[6],4870 ng·h/mL
same,AUC0-∞ Max.,[6],10800 ng·h/mL
same,AUC0-∞ Min.,[6],4910 ng·h/mL
same,Cmax Max.,[6],408 ng/mL
same,Cmax Min.,[6],109 ng/mL
same,Tmax Max.,[6],12.0 h
same,Tmax Min.,[6],0.00 h
same,t1/2 Max.,[6],35.8 h
same,t1/2 Min.,[6],10.1 h
same,AUC0-24 hr Max.,[7],10800 ng·h/mL
same,AUC0-24 hr Min.,[7],1480 ng·h/mL
same,AUC0-t Max.,[7],22300 ng·h/mL
same,AUC0-t Min.,[7],3410 ng·h/mL
same,AUC0-∞ Max.,[7],22600 ng·h/mL
same,AUC0-∞ Min.,[7],3610 ng·h/mL
same,Cmax Max.,[7],578 ng/mL
same,Cmax Min.,[7],98.4 ng/mL
same,Tmax Max.,[7],12.0 h
same,Tmax Min.,[7],0.00 h
same,t1/2 Max.,[7],69.4 h
same,t1/2 Min.,[7],26.4 h
same,AUC0-24 hr Max.,[8],4280 ng·h/mL
same,AUC0-24 hr Min.,[8],94.4 ng·h/mL
same,Cmax Max.,[8],263 ng/mL
same,Cmax Min.,[8],7.27 ng/mL
same,Tmax Max.,[8],12.0 h
same,AUC0-24 hr Max.,[9],6590 ng·h/mL
same,AUC0-24 hr Min.,[9],999 ng·h/mL
same,Cmax Max.,[9],353 ng/mL
same,Cmax Min.,[9],58.2 ng/mL
same,Tmax Max.,[9],12.0 h
same,Tmax Min.,[9],2.00 h
same,AUC0-24 hr Max.,[10],16600 ng·h/mL
same,AUC0-24 hr Min.,[10],2830 ng·h/mL
same,AUC0-t Max.,[10],41500 ng·h/mL
same,AUC0-t Min.,[10],8730 ng·h/mL
same,AUC0-∞ Max.,[10],41700 ng·h/mL
same,AUC0-∞ Min.,[10],8810 ng·h/mL
same,Cmax Max.,[10],1110 ng/mL
same,Cmax Min.,[10],190 ng/mL
same,Tmax Max.,[10],12.0 h
same,Tmax Min.,[10],0.00 h
same,t1/2 Max.,[10],61.1 h
same,t1/2 Min.,[10],27.3 h
same,dose-proportionality of plasma levels of AMXT 1501,"8, 16 and 32 mg/kg/day, Day 1 and Day 28, enterically-coated tablets",approximately dose-proportional increases
same,half-life at 28 days,"beagle, dog, plasma, oral, Day 28, all dose groups, read-out: Day 28 individual animal AMXT 1501 t1/2 values",8.85 to 69.4 h
same,AUC(0-t),"both sexes, beagle, dog, plasma, po, 8 mg/kg/day, 8 mg/kg/day PO, DFMO 0, Day 1, M+F combined, read-out: AUC0-24 hr Mean",1330 ng·h/mL
